Test results taken from US11427553B2, “Dihydrooxadiazinones” (Bayer Aktiengesellschaft, priority 2017, dated 2022).

Experiments:
[1] = tested on: HeLa cells; experiment: Assay 1 cell proliferation measurement (CTG, 72 h), HeLa; assay type: cell-based, human; conditions: Homo sapiens, HeLa; Assay 1, 72 h, Cell Titer Glo; read-out: HeLa IC50 [nM] (Cervical cancer)
Outline: (§1)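 Seed cells, incubate overnight at 37 °C; measure baseline viability (CTG, 0 h plate); dose compound in a 10-step 2.5-fold series (max generally 100 nM final, DMSO 0.3%) for 72 h; read CTG luminescence; fit IC50 with 4 parameters.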

[2] = target: human full length PDE3A (Homo sapiens (Human), UniProt Q14432); experiment: Assay 4 PDE3A enzyme inhibition (3H-cAMP SPA); assay type: biochemical; conditions: Sf9 cell extract
human full length PDE3A, sequence (Q14432 whole entry): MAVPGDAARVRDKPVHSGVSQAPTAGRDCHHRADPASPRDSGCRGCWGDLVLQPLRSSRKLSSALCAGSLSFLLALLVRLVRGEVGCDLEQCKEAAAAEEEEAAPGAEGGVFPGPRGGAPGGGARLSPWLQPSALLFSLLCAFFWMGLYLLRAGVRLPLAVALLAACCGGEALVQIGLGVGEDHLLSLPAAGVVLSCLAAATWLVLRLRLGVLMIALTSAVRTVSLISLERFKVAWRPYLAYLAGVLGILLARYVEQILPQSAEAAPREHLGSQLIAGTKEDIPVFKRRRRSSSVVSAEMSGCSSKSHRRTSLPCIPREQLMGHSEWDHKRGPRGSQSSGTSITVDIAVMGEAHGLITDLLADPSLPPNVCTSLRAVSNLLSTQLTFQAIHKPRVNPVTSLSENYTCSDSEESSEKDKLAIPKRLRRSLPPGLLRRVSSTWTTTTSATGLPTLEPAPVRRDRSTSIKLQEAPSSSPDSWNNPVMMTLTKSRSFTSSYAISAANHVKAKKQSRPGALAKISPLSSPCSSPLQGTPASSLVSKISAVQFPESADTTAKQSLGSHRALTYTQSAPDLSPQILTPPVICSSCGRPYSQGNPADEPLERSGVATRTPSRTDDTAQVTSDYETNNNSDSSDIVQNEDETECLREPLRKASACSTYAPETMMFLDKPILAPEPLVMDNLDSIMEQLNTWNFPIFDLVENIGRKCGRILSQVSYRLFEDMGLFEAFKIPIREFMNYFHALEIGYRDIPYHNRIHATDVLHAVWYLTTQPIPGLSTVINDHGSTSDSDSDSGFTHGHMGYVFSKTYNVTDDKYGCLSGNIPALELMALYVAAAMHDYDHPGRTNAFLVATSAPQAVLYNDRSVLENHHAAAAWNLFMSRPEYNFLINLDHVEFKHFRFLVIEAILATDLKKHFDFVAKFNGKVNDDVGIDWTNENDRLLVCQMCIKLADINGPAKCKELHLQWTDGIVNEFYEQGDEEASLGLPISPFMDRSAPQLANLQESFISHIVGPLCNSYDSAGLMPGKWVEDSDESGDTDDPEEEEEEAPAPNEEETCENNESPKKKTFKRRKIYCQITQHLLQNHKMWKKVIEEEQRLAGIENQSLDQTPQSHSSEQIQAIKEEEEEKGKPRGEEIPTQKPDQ
Outline: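 Enzyme: Sf9 extract with overexpressed full-length PDE3A; substrate [8-3H]cAMP, 0.025 μCi/well; 60 min, room temperature, Tris/HCl pH 7.5 buffer with MgCl2, EDTA, BSA.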

[3] = tested on: SK-MEL-3 cells; experiment: Assay 1 cell proliferation measurement (CTG, 72 h), SK-MEL-3; assay type: cell-based, human; conditions: Homo sapiens, SK-MEL3; Assay 1, 72 h, Cell Titer Glo; read-out: SK-MEL-3 IC50 [nM] (melanoma)
Outline: as §1

[4] = target: human full length PDE3B (Homo sapiens (Human), UniProt Q13370); experiment: Assay 5 PDE3B enzyme inhibition (3H-cAMP SPA); assay type: biochemical; conditions: Sf9 cell extract
human full length PDE3B, sequence (Q13370 whole entry): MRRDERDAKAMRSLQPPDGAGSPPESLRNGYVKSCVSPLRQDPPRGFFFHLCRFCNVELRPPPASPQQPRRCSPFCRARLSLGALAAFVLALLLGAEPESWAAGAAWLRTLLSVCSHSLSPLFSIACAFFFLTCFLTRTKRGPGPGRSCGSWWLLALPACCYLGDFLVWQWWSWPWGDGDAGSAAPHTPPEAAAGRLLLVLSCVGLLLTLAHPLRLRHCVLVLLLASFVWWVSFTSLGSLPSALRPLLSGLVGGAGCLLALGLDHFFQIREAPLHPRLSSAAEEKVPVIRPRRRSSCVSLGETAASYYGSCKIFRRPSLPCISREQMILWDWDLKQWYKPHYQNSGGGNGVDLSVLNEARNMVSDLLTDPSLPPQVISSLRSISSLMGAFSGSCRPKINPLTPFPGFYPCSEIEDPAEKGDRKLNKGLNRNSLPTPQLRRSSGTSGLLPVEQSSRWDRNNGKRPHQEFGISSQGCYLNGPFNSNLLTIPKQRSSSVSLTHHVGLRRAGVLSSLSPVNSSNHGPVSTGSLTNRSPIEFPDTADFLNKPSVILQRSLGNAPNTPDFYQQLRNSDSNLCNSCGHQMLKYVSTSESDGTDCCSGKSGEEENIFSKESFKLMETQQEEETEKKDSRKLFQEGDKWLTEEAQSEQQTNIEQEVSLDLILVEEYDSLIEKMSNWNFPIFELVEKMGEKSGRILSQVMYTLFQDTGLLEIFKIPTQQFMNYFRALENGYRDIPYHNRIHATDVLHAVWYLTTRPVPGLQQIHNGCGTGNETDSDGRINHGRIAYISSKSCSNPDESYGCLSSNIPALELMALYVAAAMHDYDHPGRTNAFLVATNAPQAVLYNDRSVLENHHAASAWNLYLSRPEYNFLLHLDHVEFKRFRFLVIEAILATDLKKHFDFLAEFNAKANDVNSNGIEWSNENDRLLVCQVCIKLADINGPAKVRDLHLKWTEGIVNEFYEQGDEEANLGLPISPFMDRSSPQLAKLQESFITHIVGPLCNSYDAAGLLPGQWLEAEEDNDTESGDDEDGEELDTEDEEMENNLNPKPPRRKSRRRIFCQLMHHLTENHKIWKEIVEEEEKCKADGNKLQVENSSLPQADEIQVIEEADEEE
Outline: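 Compounds in DMSO are mixed with diluted PDE3B extract from Sf9 cells, and reactions start on adding tritiated cAMP. After 60 min at room temperature, yttrium scintillation proximity beads terminate hydrolysis and signal is counted; IC50 values come from sigmoidal dose-response curves.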

Structure (SMILES) | IC50 [1] | IC50 [2] | IC50 [3] | IC50 [4]
O=C1NN=C(c2ccc(-c3cc4ccccc4s3)c(C(F)(F)F)c2)CO1 [Example 148, 5-[4-(1-Benzothiophen-2-yl)-3-(trifluoromethyl)phenyl]-3,6-dihydro-2H-1,3,4-oxadiazin-2-one] | 53 nM | 190 nM | > 100 nM | 210 nM
O=C1NN=C(c2ccc(C3=CCOC3)c(C(F)(F)F)c2)CO1 [Example 149, 5-[4-(2,5-Dihydrofuran-3-yl)-3-(trifluoromethyl)phenyl]-3,6-dihydro-2H-1,3,4-oxadiazin-2-one] | 2 nM | 163 nM | 4 nM | 132 nM
O=C1NN=C(c2ccc(C3=CCCC3)c(C(F)(F)F)c2)CO1 [Example 150, 5-[4-(Cyclopent-1-en-1-yl)-3-(trifluoromethyl)phenyl]-3,6-dihydro-2H-1,3,4-oxadiazin-2-one] | 2 nM | 240 nM | 5 nM | 250 nM
CCn1cnc(-c2ccc(C3=NNC(=O)OC3)cc2C(F)(F)F)c1 [Example 151, 5-[4-(1-Ethyl-1H-imidazol-4-yl)-3-(trifluoromethyl)phenyl]-3,6-dihydro-2H-1,3,4-oxadiazin-2-one] | 5 nM | 69 nM | 5 nM | 159 nM
Cc1cc(-c2ccc(C3=NNC(=O)OC3)cc2C(F)(F)F)sc1C#N [Example 152, 3-Methyl-5-[4-(2-oxo-3,6-dihydro-2H-1,3,4-oxadiazin-5-yl)-2-(trifluoromethyl)phenyl]thiophene-2-carbonitrile] | 21 nM | 63 nM | 56 nM | 76 nM
CC(C)n1cc(-c2ccc(C3=NNC(=O)OC3)cc2C(F)(F)F)cn1 [Example 153, 5-{4-[1-(Propan-2-yl)-1H-pyrazol-4-yl]-3-(trifluoromethyl)phenyl}-3,6-dihydro-2H-1,3,4-oxadiazin-2-one] | 4 nM | 15 nM | 7 nM | 26 nM
O=C1NN=C(c2ccc(-c3ccccc3F)c(C(F)(F)F)c2)CO1 [Example 155, 5-[2′-Fluoro-2-(trifluoromethyl)[1,1′-biphenyl]-4-yl]-3,6-dihydro-2H-1,3,4-oxadiazin-2-one] | 9 nM | 92 nM | 17 nM | 110 nM
O=C1NN=C(c2ccc(-c3ccc(C(F)(F)F)s3)c(C(F)(F)F)c2)CO1 [Example 156, 5-{3-(Trifluoromethyl)-4-[5-(trifluoromethyl)thiophen-2-yl]phenyl}-3,6-dihydro-2H-1,3,4-oxadiazin-2-one] | 55 nM | 440 nM | 68 nM | 650 nM
Cc1ccc(-c2ccc(C3=NNC(=O)OC3)cc2C(F)(F)F)nc1 [Example 157, 5-[4-(5-Methylpyridin-2-yl)-3-(trifluoromethyl)phenyl]-3,6-dihydro-2H-1,3,4-oxadiazin-2-one] | 44 nM | > 1000 nM | 71 nM | > 1000 nM
O=C1NN=C(c2ccc(-c3ccc(F)cn3)c(C(F)(F)F)c2)CO1 [Example 158, 5-[4-(5-Fluoropyridin-2-yl)-3-(trifluoromethyl)phenyl]-3,6-dihydro-2H-1,3,4-oxadiazin-2-one] | 22 nM | 500 nM | 40 nM | 720 nM
O=C1NN=C(c2ccc(-c3ccc(Cl)cn3)c(C(F)(F)F)c2)CO1 [Example 159, 5-[4-(5-Chloropyridin-2-yl)-3-(trifluoromethyl)phenyl]-3,6-dihydro-2H-1,3,4-oxadiazin-2-one] | 11 nM | > 1000 nM | 22 nM | > 1000 nM
O=C1NN=C(c2ccc(-c3ccccn3)c(C(F)(F)F)c2)CO1 [Example 160, 5-[4-(Pyridin-2-yl)-3-(trifluoromethyl)phenyl]-3,6-dihydro-2H-1,3,4-oxadiazin-2-one] | 27 nM | > 1000 nM | 47 nM | > 1000 nM
Cc1cc(C#N)ccc1-c1ccc(C2=NNC(=O)OC2)cc1F [Example 163, 2′-Fluoro-2-methyl-4′-(2-oxo-3,6-dihydro-2H-1,3,4-oxadiazin-5-yl)[1,1′-biphenyl]-4-carbonitrile] | 8 nM | 35 nM | 14 nM | 51 nM
CC(C)=Cc1ccc(C2=NNC(=O)OC2)cc1OC(F)(F)F [Example 164, 5-[4-(2-Methylprop-1-en-1-yl)-3-(trifluoromethoxy)phenyl]-3,6-dihydro-2H-1,3,4-oxadiazin-2-one] | 6 nM | 300 nM | 8 nM | 200 nM
Cc1ccc(-c2ccc(C3=NNC(=O)O[C@H]3C)cc2C(F)(F)F)cn1 [Example 167, (6S)-6-Methyl-5-[4-(6-methylpyridin-3-yl)-3-(trifluoromethyl)phenyl]-3,6-dihydro-2H-1,3,4-oxadiazin-2-one] | 4 nM | 34 nM | 6 nM | 66 nM
Cc1ccc(-c2ccc(C3=NNC(=O)O[C@H]3C)cc2C(F)(F)F)c(F)c1 [Example 168, (6S)-5-[2′-Fluoro-4′-methyl-2-(trifluoromethyl)[1,1′-biphenyl]-4-yl]-6-methyl-3,6-dihydro-2H-1,3,4-oxadiazin-2-one] | 14 nM | 170 nM | 25 nM | 220 nM
C[C@@H]1OC(=O)NN=C1c1ccc(-c2cc(F)c(F)cc2F)c(C(F)(F)F)c1 [Example 169, (6S)-6-Methyl-5-[2′,4′,5′-trifluoro-2-(trifluoromethyl)[1,1′-biphenyl]-4-yl]-3,6-dihydro-2H-1,3,4-oxadiazin-2-one] | 20 nM | 180 nM | 32 nM | 240 nM
C[C@@H]1OC(=O)NN=C1c1ccc(-c2ccc(F)c(F)c2F)c(C(F)(F)F)c1 [Example 170, (6S)-6-Methyl-5-[2′,3′,4′-trifluoro-2-(trifluoromethyl)[1,1′-biphenyl]-4-yl]-3,6-dihydro-2H-1,3,4-oxadiazin-2-one] | 27 nM | 190 nM | 40 nM | 180 nM
C[C@@H]1OC(=O)NN=C1c1ccc(-c2cc(F)ccc2F)c(C(F)(F)F)c1 [Example 171, (6S)-5-[2′,5′-Difluoro-2-(trifluoromethyl)[1,1′-biphenyl]-4-yl]-6-methyl-3,6-dihydro-2H-1,3,4-oxadiazin-2-one] | 18 nM | 150 nM | 31 nM | 210 nM
C[C@@H]1OC(=O)NN=C1c1ccc(-c2ccccc2C#N)c(C(F)(F)F)c1 [Example 172, 4′-[(6S)-6-Methyl-2-oxo-3,6-dihydro-2H-1,3,4-oxadiazin-5-yl]-2′-(trifluoromethyl)[1,1′-biphenyl]-2-carbonitrile] | 37 nM | 290 nM | 48 nM | 520 nM
C[C@@H]1OC(=O)NN=C1c1ccc(-c2ccc3[nH]ccc3c2)c(C(F)(F)F)c1 [Example 173, (6S)-5-[4-(1H-Indol-5-yl)-3-(trifluoromethyl)phenyl]-6-methyl-3,6-dihydro-2H-1,3,4-oxadiazin-2-one] | 15 nM | 58 nM | 27 nM | 58 nM
C[C@@H]1OC(=O)NN=C1c1ccc(-c2cccc(O)c2)c(C(F)(F)F)c1 [Example 175, (6S)-5-[3′-Hydroxy-2-(trifluoromethyl)[1,1′-biphenyl]-4-yl]-6-methyl-3,6-dihydro-2H-1,3,4-oxadiazin-2-one] | 6 nM | 26 nM | 3 nM | 24 nM
C[C@@H]1OC(=O)NN=C1c1ccc(-c2cccc(N)c2)c(C(F)(F)F)c1 [Example 176, (6S)-5-[3′-Amino-2-(trifluoromethyl)[1,1′-biphenyl]-4-yl]-6-methyl-3,6-dihydro-2H-1,3,4-oxadiazin-2-one] | 2 nM | 37 nM | 4 nM | 35 nM
C[C@@H]1OC(=O)NN=C1c1ccc(-c2ccc(F)cc2F)c(C(F)(F)F)c1 [Example 177, (6S)-5-[2′,4′-Difluoro-2-(trifluoromethyl)[1,1′-biphenyl]-4-yl]-6-methyl-3,6-dihydro-2H-1,3,4-oxadiazin-2-one] | 12 nM | 160 nM | 17 nM | 130 nM
Cc1ccc(-c2ccc(C3=NNC(=O)O[C@H]3C)cc2C(F)(F)F)cc1F [Example 178, (6S)-5-[3′-Fluoro-4′-methyl-2-(trifluoromethyl)[1,1′-biphenyl]-4-yl]-6-methyl-3,6-dihydro-2H-1,3,4-oxadiazin-2-one] | 13 nM | 140 nM | 19 nM | 130 nM
C[C@@H]1OC(=O)NN=C1c1ccc(-c2ccccc2F)c(C(F)(F)F)c1 [Example 179, (6S)-5-[2′-Fluoro-2-(trifluoromethyl)[1,1′-biphenyl]-4-yl]-6-methyl-3,6-dihydro-2H-1,3,4-oxadiazin-2-one] | 8 nM | 140 nM | 15 nM | 110 nM
